Data as given in publication PMC5751205, “Rapid Non-Enzymatic Glycation of the Insulin Receptor under Hyperglycemic Conditions Inhibits Insulin Binding In Vitro: Implications for Insulin Resistance” (International Journal of Molecular Sciences, 2017).
Where two headings read alike, the source gives them in different places. No end group written: not given here.

Key:
[1] = tested on: insulin receptor (IR), intact recombinant, glycated; experiment: Insulin binding to intact glycated insulin receptor by UV spectroscopy; settings: IR incubated six days at 37 °C in 20 mM glucose, measured as decrease in absorbance
Experimental: (§1) Intact recombinant IR was obtained from Sigma-Aldrich (St. Louis, MO, USA) and utilized at 42.9 units/mL in phosphate buffered saline, pH 7.4 (PBS) or in PBS with 20 mM glucose added. PBS and 20 mM glucose solutions of IR were incubated for six days at 37 °C. An aliquot of each preparation was then subjected to centrifugal filtration and washing through Ultrafree-MC 5 kda or Ultracel 3 kda filter units. The resulting retentates were resuspended in PBS. In this way, identical preparations of unglycated IR and glycated IR were made in both PBS and in 20 mM gucose PBS. Microliter quantities of PBS buffer, or 20 mM glucose PBS, or human recombinant INS (Sigma-Aldrich, St. Louis, MO, USA) in PBS or 20 mM glucose PBS were then added serially to 100 µL of each of the four preparations of IR and to control wells containing only PBS or 20 mM glucose PBS. Experiments were carried out in a crystal 96-well plate and the serial combinations subjected to UV spectrophotometry to obtain their spectra. The spectra of the control wells were subtracted from the spectra of the experimental wells to yield expected values at each UV wavelength and differences between the controls and experimental values determined. […] Binding constants were determined from the concentration at which the binding curves inverted. […]

[2] = ref [41],[42], cited from earlier work
Experimental: Table 1 Table summarizing experiments to identify motifs determining insulin-receptor (IR) peptide glycation and whether glycation of IR peptides results in inhibition of insulin binding to these peptides. Specifically, this table provides binding constants glucose binding non-covalently to various insulin receptor (IR) peptides; glycation of the same IR peptides at 20 mM glucose for six days; the | column: Glucose Binding Kd (mM)

[3] = biological target: insulin receptor (IR), intact recombinant, unglycated; experiment: Insulin binding to intact unglycated insulin receptor by UV spectroscopy; settings: one of two independent runs
Experimental: as §1

[4] = biological target: T1, insulin-HRP (Homo sapiens, UniProt P01308); experiment: Effect of glycation on insulin-HRP binding to IR peptides; settings: for Ins-HRP Binding Inhibition (Glycated): change in Ins-HRP binding at 10 nM after exposure of the peptide to glycating conditions (six days at 20 mM glucose); for Change of INS-HRP binding to the peptide after glycation: 6-day exposure to 20 mM glucose, triplicate, averaged
T1 sequence (P01308 90-110): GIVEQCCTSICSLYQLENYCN
T1 sequence (P01308 25-54): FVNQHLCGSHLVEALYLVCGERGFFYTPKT
Experimental: Insulin receptor peptides (Figure 1) were synthesized by RS Synthesis (Louisville, KY, USA) to at least 95% purity by high pressure liquid chromatography (HPLC) and mass spectrometry. Peptides or recombinant human insulin (rHu) (Lilly, Indianapolis, IN, USA) were dissolved in glucose-free, phenol-red-free, Dulbecco’s modified Eagle growth medium (DMEM) to 1 mg/mL. Stock 2.0 M D-glucose (Sigma-Aldrich, St. Louis, MO, USA) solutions were also made in DMEM. The peptide and glucose stocks were combined to yield final reaction solutions with peptides at 0.1 mg/mL and glucose at […]. Combinations were incubated at 36–38 °C for 1–6 days. Reactions were stopped and solutions were stored by freezing at −20 °C. Glycated peptides were desalted by centrifugal filtration through Ultrafree-MC 5 kda or Ultracel 3 kda filter units. Resulting retentate was resuspended in low ionic strength saline immediately before performing mass spectrometry.
(§2) Each peptide was held constant at 0.1 mg/mL in pH 7.4 phosphate-buffered saline, and 100 μL aliquots were pipetted into rows of a Costar high-binding ELISA plate and incubated for an hour. The plate was washed 3× with 0.1% Tween 20 (Sigma-Aldrich) in 0.05 M phosphate buffered saline (PBS). Two hundred µL 2% polyvinyl alcohol in PBS were added to each well and incubated 1 h. The plates were then washed 3× again with 0.1% Tween 20. A solution of insulin conjugated to horse-radish peroxidase (HRP), 0.83 µg in 1.0 mL PBS, was made and serially diluted with PBS by thirds, ten times. These serial dilutions were added to the plate wells, incubated for an hour, and then washed 3× as before. Finally, 100 µL of stock ABTS [2,2′-azino-bis(3-ethylbenzothiazoline-6-sulphonic acid)] (Millipore, Burlington, MA, USA) was added to each well, incubated for thirty minutes, and the plate was then read on a SpectraMax Plus scanning microplate spectrophotometer at 405 nm. Controls wells lacking peptide but with PVA, INS-HRP and ABTS measured non-specific binding that was subtracted from the absorbance values of the rest of the wells. All experiments were run in triplicate and the averages of the corrected absorbances were then plotted against the concentration of the INS–HRP for each peptide to yield binding curves. Because binding curves are calculated by plotting differences, it was not possible to incorporate error bars into these curves.
The same technique just described in Section 4.3 was used to measure the effect of glycation on INS-HRP binding to IR peptides as above with one change: IR peptides were serially diluted instead of the INS-HRP, which was held constant. This methodological modification was made in order to reduce the amount of IR peptide required to obtain results. As in Section 4.3, each experiment was run in triplicate and the results averaged.

[5] = biological target: T1, insulin-HRP; experiment: Insulin-HRP binding to IR peptides (ELISA plate, ABTS read-out); settings: Ins-HRP at 10 nM, IR peptide in the absence of glycation
Experimental: as §2

[6] = glucose binding non-covalently to the peptide, read-out: Glucose Binding Kd

Row | Ins-HRP Binding Inhibition (Glycated) [4] | 10 nM Ins-HRP Binding (Native) [5] | Change of INS-HRP binding to the peptide after glycation [4] | Substance | Kd [2, 6] [mM] | other results
1 |  |  |  | Insulin: recombinant human insulin (Lilly for glycation; Sigma-Aldrich for IR binding) | 0.25 | Decrease in amount of INS binding due to glycation of the IR, in 20 mM glucose ([1]; binding in PBS with 20 mM glucose): one third; Decrease in amount of INS binding due to glycation of the IR, in PBS ([1]; binding in PBS without glucose): one third; Kd ([2]; glucose binding non-covalently, second of two values printed for insulin, read-out: Glucose Binding Kd (mM), second value): 30 mM; Binding constant of unglycated INS for unglycated IR in 20 mM glucose ([3]; PBS pH 7.4 with 20 mM glucose): 110 µg/mL of INS; Binding constant of unglycated INS for unglycated IR in PBS ([3]; PBS pH 7.4 without glucose, concentration at which the binding curve inverted): 70 µg/mL of INS
2 | no | no |  | ESEDSQKHNQSEYEDS [689-705, synthetic insulin receptor peptide, residues 689-705 of human IR] | 63 | 
3 | YES | YES | very significant loss of INS-HRP binding | H-FRVYGLESLKDLF [91-103] | 37 | 
4 | no | no |  | KTFEDYLHNVVFV [730-742, synthetic insulin receptor peptide, residues 730-742 of human IR] | 60 | 
5 | no | no |  | HLYFGEVCPGMDIRNN [28-43, synthetic insulin receptor peptide, residues 28-43 of human IR (UniProt P06213)] | 50 | 
6 | no | no |  | GMDIRNNLTRLHELE [37-51, synthetic insulin receptor peptide, residues 37-51 of human IR (UniProt P06213)] | 40 | 
7 | no | no |  | H-TQGKLFFHYNPK [453-464] | 57 | 
8 | YES | YES | very significant loss of INS-HRP binding | ENCSVIEGHLQ [51-61, synthetic insulin receptor peptide, residues 51-61 of human IR, insulin-like] | 52 | Insulin-HRP binding after incubation of the peptide in 200 mM glucose ([4]; 200 mM glucose, six days): nearly undetectable levels; Factor by which glycation reduces the insulin-HRP binding constant ([4]; peptide incubated in 20 and 60 mM glucose over six days): approximately 2
9 | YES | YES | very significant loss of INS-HRP binding | H-NLTVIRGSRLFFNY [105-118] | 35 | 
10 | no | no |  | H-TIDWSRILDS [157-166] | 57 | 
